Data taken from publication PMC10215352 (Biology, 2023).
Peptide text beside a SMILES is read from it.

Columns and labels:
Type in all cases: cell-based
YdgR [1] = molecular target: T1, YdgR (Escherichia coli, UniProt P77304); assay: inhibition of β-Ala-Lys-AMCA uptake in E. coli; details: 10 mM peptide, 0.5 mM labelled substrate β-Ala-Lys-AMCA, pH 6.5, 37 °C; competing substrate
T1 construct: gene dtpA; full-length, C-terminal His6 tag, expressed in E. coli BL21(DE3) pLysS, whole-cell uptake
T1 sequence (P77304 1-500): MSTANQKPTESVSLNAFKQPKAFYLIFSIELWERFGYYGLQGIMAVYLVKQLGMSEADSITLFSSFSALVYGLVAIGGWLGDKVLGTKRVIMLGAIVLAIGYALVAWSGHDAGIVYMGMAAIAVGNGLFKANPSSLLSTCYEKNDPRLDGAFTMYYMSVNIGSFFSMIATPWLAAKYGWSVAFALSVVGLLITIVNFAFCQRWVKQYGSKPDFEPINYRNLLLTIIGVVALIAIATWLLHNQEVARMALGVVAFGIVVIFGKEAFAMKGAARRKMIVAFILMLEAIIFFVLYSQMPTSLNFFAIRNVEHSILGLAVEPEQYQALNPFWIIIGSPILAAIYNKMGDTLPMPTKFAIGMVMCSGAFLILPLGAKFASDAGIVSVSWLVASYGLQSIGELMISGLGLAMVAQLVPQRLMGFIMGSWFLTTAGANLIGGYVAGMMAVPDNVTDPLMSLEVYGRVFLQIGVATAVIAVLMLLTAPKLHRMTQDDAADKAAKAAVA

YjdL = molecular target: T2, YjdL (Escherichia coli, UniProt P39276); assay: fluorescent uptake in E. coli; details: 0.5 mM, labelled compound, cells preloaded with AA, with and without CCCP, 37 °C
T2 construct: gene dtpC; full-length, C-terminal His6 tag, expressed in E. coli BL21(DE3) pLysS, whole-cell uptake
T2 sequence (P39276 1-485): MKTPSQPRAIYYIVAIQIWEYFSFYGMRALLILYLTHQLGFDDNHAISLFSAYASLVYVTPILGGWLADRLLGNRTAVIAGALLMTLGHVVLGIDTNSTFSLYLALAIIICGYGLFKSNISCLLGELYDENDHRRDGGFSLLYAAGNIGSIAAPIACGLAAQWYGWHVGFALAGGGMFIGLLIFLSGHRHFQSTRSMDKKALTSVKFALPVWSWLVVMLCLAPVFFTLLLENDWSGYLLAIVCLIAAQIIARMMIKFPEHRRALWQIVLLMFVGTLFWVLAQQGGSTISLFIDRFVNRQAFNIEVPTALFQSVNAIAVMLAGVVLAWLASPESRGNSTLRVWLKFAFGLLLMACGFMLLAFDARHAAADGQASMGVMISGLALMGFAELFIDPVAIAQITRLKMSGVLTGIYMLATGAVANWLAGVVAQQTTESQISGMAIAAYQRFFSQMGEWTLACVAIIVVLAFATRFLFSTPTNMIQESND

YdgR [2] = molecular target: T1, YdgR; assay: fluorescent uptake in E. coli; details: 0.5 mM, labelled compound, pH 6.5, 37 °C

Structure (SMILES)	uptake inhibition (YdgR [1])	fluorescent uptake in E. coli (YjdL)	fluorescent uptake in E. coli (YdgR [2])
C[C@H](N)C(=O)N[C@@H](C)C(=O)O [AA] (H-Ala-Ala-OH)	its uptake was significantly decreased in the presence of AA and AAA		
Cc1c(CC(=O)NCCCC[C@H](NC(=O)CCN)C(=O)O)c(=O)oc2cc(N)ccc12 [β-Ala-Lys-AMCA]		YjdL and YdgR exhibited a significant decline in uptake activity in the presence of CCCP	Overall β-Ala-Lys-AMCA uptake by CPEPOT was significantly lower than YdgR
